Tests used:
Aeromonas caviae [1] = experiment: Antibacterial activity against Aeromonas caviae assessed as percent resistant isolates by broth microdilution method; format: functional
[2] = Antibacterial activity against Salmonella enterica serovar Virchow by broth microdilution method; format: functional, Salmonella enterica subsp. enterica serovar Virchow
[3] = Antibacterial activity against Salmonella enterica serovar Choleraesuis assessed as percent susceptible isolates by broth microdilution method; format: functional, Salmonella enterica subsp. enterica serovar Choleraesuis
[4] = Antibacterial activity against Salmonella enterica serovar Heidelberg by broth microdilution method; format: functional, Salmonella enterica subsp. enterica serovar Heidelberg
Aeromonas sobria [5] = experiment: Antibacterial activity against Aeromonas sobria assessed as percent resistant isolates by broth microdilution method; format: functional
Shigella dysenteriae = experiment: Antibacterial activity against Shigella dysenteriae by broth microdilution method; format: functional
Shigella sonnei = experiment: Antibacterial activity against Shigella sonnei assessed as percent resistant isolates by broth microdilution method; format: functional; settings: pooled result: one value given for 4 cell lines, strains, targets or settings
Shigella boydii = experiment: Antibacterial activity against Shigella boydii assessed as percent susceptible isolates by broth microdilution method; format: functional; settings: pooled result: one value given for 3 cell lines, strains, targets or settings
Aeromonas hydrophila [6] = experiment: Antibacterial activity against Aeromonas hydrophila assessed as percent susceptible isolates by broth microdilution method; format: functional
Vibrio cholerae = experiment: Antibacterial activity against Vibrio cholerae by broth microdilution method; format: functional
Salmonella typhimurium = experiment: Antibacterial activity against Salmonella enterica serovar Typhimurium by broth microdilution method; format: functional, Salmonella enterica subsp. enterica serovar Typhimurium
Plesiomonas shigelloides [7] = experiment: Antibacterial activity against Plesiomonas shigelloides by broth microdilution method; format: functional
Plesiomonas shigelloides [8] = experiment: Antibacterial activity against Plesiomonas shigelloides assessed as percent susceptible isolates by broth microdilution method; format: functional
Aeromonas sobria [9] = experiment: Antibacterial activity against Aeromonas sobria by broth microdilution method; format: functional
Shigella flexneri = experiment: Antibacterial activity against Shigella flexneri by broth microdilution method; format: functional
[10] = test system: Yersinia pseudotuberculosis; experiment: Antibacterial activity against Yersinia pseudotuberculosis assessed as percent susceptible isolates by broth microdilution method; format: functional
Aeromonas caviae [11] = experiment: Antibacterial activity against Aeromonas caviae by broth microdilution method; format: functional
Vibrio vulnificus = experiment: Antibacterial activity against Vibrio vulnificus by broth microdilution method; format: functional
Vibrio alginolyticus = experiment: Antibacterial activity against Vibrio alginolyticus by broth microdilution method; format: functional
Salmonella enteritidis = experiment: Antibacterial activity against Salmonella enterica serovar Enteritidis by broth microdilution method; format: functional, Salmonella enterica subsp. enterica serovar Enteritidis
Aeromonas hydrophila [12] = experiment: Antibacterial activity against Aeromonas hydrophila assessed as percent resistant isolates by broth microdilution method; format: functional
Plesiomonas shigelloides [13] = experiment: Antibacterial activity against Plesiomonas shigelloides assessed as percent resistant isolates by broth microdilution method; format: functional
Campylobacter coli = experiment: Antibacterial activity against Campylobacter coli by broth microdilution method; format: functional
[14] = Antibacterial activity against Salmonella enterica serovar Newport by broth microdilution method; format: functional, Salmonella enterica subsp. enterica serovar Newport
Salmonella paratyphi = experiment: Antibacterial activity against Salmonella enterica serovar Paratyphi assessed as percent susceptible isolates by broth microdilution method; format: functional, Salmonella enterica subsp. enterica serovar Paratyphi A

CCn1cc(C(=O)O)c(=O)c2ccc(C)nc21 [NALIDIXIC ACID]
Activity (Aeromonas caviae [1]): 18.8%
MIC50 [2]: ≤ 8 µg/mL
MIC90 [2]: > 32 µg/mL
Activity [3]: 84.2%
MIC50 [4]: ≤ 8 µg/mL
MIC90 [4]: > 32 µg/mL
Activity (Aeromonas sobria [5]): 18.8%
MIC50 (Shigella dysenteriae): ≤ 8 µg/mL
MIC90 (Shigella dysenteriae): ≤ 8 µg/mL
Activity (Shigella sonnei): 3%
Activity (Shigella boydii): 97%
Activity (Aeromonas hydrophila [6]): 81.2%
MIC (Vibrio cholerae): ≤ 8 µg/mL
MIC50 (Vibrio cholerae): ≤ 8 µg/mL
MIC90 (Vibrio cholerae): ≤ 8 µg/mL
MIC50 (Salmonella typhimurium): ≤ 8 µg/mL
MIC90 (Salmonella typhimurium): > 32 µg/mL
MIC (Plesiomonas shigelloides [7]): ≤ 8 µg/mL
MIC50 (Plesiomonas shigelloides [7]): ≤ 8 µg/mL
Activity (Plesiomonas shigelloides [8]): 100%
MIC50 (Aeromonas sobria [9]): ≤ 8 µg/mL
MIC90 (Aeromonas sobria [9]): > 32 µg/mL
MIC50 (Shigella flexneri): ≤ 8 µg/mL
MIC90 (Shigella flexneri): ≤ 8 µg/mL
Activity [10]: 93.5%
MIC50 (Aeromonas caviae [11]): ≤ 8 µg/mL
MIC90 (Aeromonas caviae [11]): > 32 µg/mL
MIC (Vibrio vulnificus): ≤ 8 µg/mL
MIC50 (Vibrio vulnificus): ≤ 8 µg/mL
MIC90 (Vibrio vulnificus): ≤ 8 µg/mL
MIC (Vibrio alginolyticus): ≤ 8 µg/mL
MIC50 (Vibrio alginolyticus): ≤ 8 µg/mL
MIC90 (Vibrio alginolyticus): ≤ 8 µg/mL
MIC50 (Salmonella enteritidis): ≤ 8 µg/mL
MIC90 (Salmonella enteritidis): > 32 µg/mL
Activity (Aeromonas hydrophila [12]): 18.8%
Activity (Plesiomonas shigelloides [13]): 0%
MIC50 (Campylobacter coli): ≤ 8 µg/mL
MIC90 (Campylobacter coli): > 32 µg/mL
MIC50 [14]: ≤ 8 µg/mL
MIC90 [14]: > 32 µg/mL
Activity (Salmonella paratyphi): 84.2%

— ChEMBL document CHEMBL1629662, “Antimicrobial activity of prulifloxacin tested against a worldwide collection of gastroenteritis-producing pathogens, including those causing traveler's diarrhea” (2009)
